{"source": "patent US12293809B2", "about": "“Workflow for generating compounds with biological activity against a specific biological target” (INSILICO MEDICINE IP LIMITED, priority 2019, dated 2025)", "key": {"[1]": {"biological_target": "T1, hDDR1 (Homo sapiens, UniProt Q08345)", "T1 sequence (Q08345 19-913)": "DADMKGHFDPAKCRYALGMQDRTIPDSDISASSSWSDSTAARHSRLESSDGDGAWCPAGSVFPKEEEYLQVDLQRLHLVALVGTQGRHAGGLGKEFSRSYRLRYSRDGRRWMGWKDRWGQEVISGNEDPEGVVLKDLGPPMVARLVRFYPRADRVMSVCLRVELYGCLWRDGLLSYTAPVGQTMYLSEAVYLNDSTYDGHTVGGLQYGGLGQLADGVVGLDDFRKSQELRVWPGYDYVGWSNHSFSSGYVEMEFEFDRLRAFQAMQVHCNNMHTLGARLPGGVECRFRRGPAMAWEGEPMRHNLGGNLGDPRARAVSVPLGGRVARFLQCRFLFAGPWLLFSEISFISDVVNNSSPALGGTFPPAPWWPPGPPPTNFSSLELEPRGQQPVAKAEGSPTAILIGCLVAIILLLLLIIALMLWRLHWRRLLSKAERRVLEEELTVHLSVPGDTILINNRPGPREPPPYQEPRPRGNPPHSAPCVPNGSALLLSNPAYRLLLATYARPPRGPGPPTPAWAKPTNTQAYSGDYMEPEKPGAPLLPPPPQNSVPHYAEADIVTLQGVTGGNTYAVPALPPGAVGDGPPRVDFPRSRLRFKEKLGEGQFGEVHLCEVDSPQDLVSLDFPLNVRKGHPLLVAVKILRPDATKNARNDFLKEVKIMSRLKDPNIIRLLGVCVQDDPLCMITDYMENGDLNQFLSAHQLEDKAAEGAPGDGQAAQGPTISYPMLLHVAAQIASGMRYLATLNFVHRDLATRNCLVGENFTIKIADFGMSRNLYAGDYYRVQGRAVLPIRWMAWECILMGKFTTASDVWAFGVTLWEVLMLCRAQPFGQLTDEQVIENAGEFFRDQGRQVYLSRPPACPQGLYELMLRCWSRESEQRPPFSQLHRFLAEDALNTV", "experiment": "KinaseProfiler radiometric biochemical kinase assay (Eurofins)", "set-up": "purchased Eurofins 14-942KP10", "details": "for IC50: read-out: IC50, inhibition of DDR1 activity", "experimental": "The experimental procedures were performed by Eurofins. The activity of the molecules against hDDR1 and hDDR2 kinases was assessed using KinaseProfiler^67. […] The enzymatic reaction processed in the presence of Mg^2+ cations and ATP at room temperature for 40 minutes and terminated by addition of phosphoric acid. […] All the compounds were prepared in 100% DMSO. […] The biological evaluation of selectivity against non-target kinases was performed in Dundee Eurofins, using Scan Max Delta Panel [10 μM ATP] KinaseProfiler^68."}, "[2]": {"biological_target": "T1, hDDR1", "experiment": "Rescreen in another biochemical assay (Thermo Fisher-PR6913A)", "details": "read-out: IC50 towards DDR1 kinase, rescreen", "experimental": "In the present example, six molecules were generated, selected, and synthesized and were submitted for biological testing (e.g., within 35 days). […] Since the dose-response curves for Compounds 2 and 4 seemed likely inconsistent, additional experiments were performed to confirm the activity of these molecules towards DDR1 kinase (see FIG. 4B). […] Compounds 1 and 2 were also evaluated towards DDR2 kinase.\nFIGS. 4A-4B show the structures and dose-response curves for the generated molecules. The six generated compounds were tested in a dose-dependent manner against DDR1 tyrosine kinase."}, "[3]": {"test_system": "α-actin expression in MRC-5 cells", "experiment": "MRC-5 fibrosis assay, TGF-β stimulated (Western blot)", "format": "cell-based", "experimental": "(§1) After 20 h growth in the reduced serum medium, the cells were treated with indicated doses of compounds for 30 minutes. Subsequently, the cells were stimulated with 10 ng/mL TGF-β (R&D Systems, 240-B-002) for 48 or 72 hours."}, "[4]": {"experiment": "in vitro", "experimental": "(§2) Cold acetonitrile (ACN) including 100 ng/mL Tolbutamide and 100 ng/mL Labetalol as internal standard (IS) were used for stop solution. 10 μL compound or control working solution/well was added to all plates (T0, T5, T10, T20, T30, T60, NCF60) except matrix blank. Dispense 80 μL/well microsome solution was added to every plate by Apricot, the mixture of microsome solution and compound were incubated at 37° C. for about 10 min. After pre-warming, dispense 10 μL/well NADPH regenerating system was added to every plate by Apricot to start reaction. The solution was then incubated at 37° C. 300 (μL/well) stop solution (cold in 4° C.) was added to terminate the reaction. The sampling plates were shaken for approximately 10 min. Samples were centrifuged at 4000 rpm for 20 min under 4° C. While centrifuging, 8×new 96-well plate were loaded with 300 μL HPLC water, then 100 μL supernatant was transferred and mixed for LC/MS/MS."}, "[5]": {"experiment": "Microsomal stability (MLM)", "experimental": "as §2"}, "[6]": {"test_system": "CTGF expression in MRC-5 cells", "experiment": "MRC-5 fibrosis assay, TGF-β stimulated (Western blot)", "format": "cell-based", "experimental": "as §1"}, "[7]": {"test_system": "collagen α1 production in LX-2 cells", "experiment": "LX-2 fibrosis assay, TGF-β stimulated (Western blot)", "format": "cell-based, human", "details": "0.5 to 10 μM", "experimental": "Collagen α1, α-SMA, CTGF and GAPDH were traced using Western blot analysis. DMSO and SB-525334 were used as negative and positive controls, respectively.\nHuman hepatic stellate cells LX-2 were grown in DMEM (Invitrogen, 11960) supplied with 1% MEM Non-Essential Amino Acids (Invitrogen, 11140-050), 2% fetal bovine serum (Hyclone, SV30087.03), Penicillin (100 U/mL)-streptomycin (100 μg/mL) (Millipore, TMS-AB2-C) and 2 mM L-Glutamine (Invitrogen, 25030-001). After the cells grew in 12-well plates for 24 h, the cell culture medium was changed to the same as above except using 0.4% fetal bovine serum. After 20 h growth in the reduced serum medium, the cells were treated with indicated doses of compounds for 30 minutes. Subsequently, the cells were stimulated with 4 ng/mL TGF-β (R&D Systems, 240-B-002) for 48 h. The cells were rinsed twice with DPBS before being harvested with 100 μL RIPA buffer (Sigma, R0278) supplemented with protease inhibitor cocktail (Roche, 04693132001) at 4° C. The total protein in each sample was quantified using BCA Protein Assay Kit (Pierce™, 23227) and equal amount of total protein of each sample was subject to Western blot analysis. Antibodies used were mouse anti-α-Actin (SPM332) (sc-365970), mouse anti-CTGF (E5) (sc-365970), and mouse anti-collagen al (3G3) (sc-293182), from Santa Cruz Biotechnologies; and mouse anti-GAPDH (6C5) (EMD Millipore, MAB374)."}, "[8]": {"test_system": "α-actin (α-SMA) production in LX-2 cells", "experiment": "LX-2 fibrosis assay, TGF-β stimulated (Western blot)", "format": "cell-based, human", "details": "0.5 to 10 μM", "experimental": "Collagen α1, α-SMA, CTGF and GAPDH were traced using Western blot analysis.\nAfter 20 h growth in the reduced serum medium, the cells were treated with indicated doses of compounds for 30 minutes."}}, "note": "Entries after “also recorded” stand apart in the source; their conditions may differ."}
{"smiles": "Cc1ccc(CNC(=O)Cc2cccc(F)c2)cc1-c1ccc2[nH]ncc2c1", "note": "[Compound 3]", "values": [{"measurement": "IC50", "setting": "[1]", "value": 1000, "unit": "nM"}]}
{"smiles": "Cc1cc2[nH]c(-c3cc(CN(C)C)cc(C(F)(F)F)c3)nc2cc1C#Cc1cncnc1", "note": "[Compound 4]", "values": [{"measurement": "IC50", "setting": "[2]", "value": 156, "unit": "nM"}, {"measurement": "IC50", "setting": "[1]", "value": 278, "unit": "nM"}]}
{"smiles": "O=C(CN1CCNC2(CCN(C(=O)c3ccc4[nH]ncc4c3)CC2)C1=O)Nc1cccc(F)c1", "note": "[Compound 5]", "values": [{"measurement": "activity against DDR1 kinase (in words)", "setting": "[1]", "value": "inactive"}]}
{"smiles": "Cc1ccc(NC(=O)CN2CCC2C(F)(F)F)cc1NC(=O)c1cnn2c1CCC2", "note": "(stereo not shown) [Compound 6]", "values": [{"measurement": "activity against DDR1 kinase (in words)", "setting": "[1]", "value": "inactive; also recorded: did not demonstrate any activity"}]}
{"smiles": "Cc1nc(Nc2ncc(C(=O)Nc3c(C)cccc3Cl)s2)cc(N2CCN(CCO)CC2)n1", "note": "[Dasatinib, dasatinib]", "values": [{"measurement": "concentration of maximum inhibition of α-actin expression", "setting": "[3]; MRC-5", "value": 10, "unit": "µM"}]}
{"smiles": "O=C(O)Cc1ccccc1Nc1c(Cl)cccc1Cl", "note": "[Diclofenac, diclofenac]", "values": [{"measurement": "CLint scaled", "setting": "[4]; Beagle, dog, microsomes", "value": "< 13.8", "unit": "mL/min/kg"}, {"measurement": "Remaining (*NCF = 60 min)", "setting": "[4]; Beagle, dog, microsomes, 1 h", "value": 96.9, "unit": "%"}, {"measurement": "Remaining (T = 60 min)", "setting": "[4]; Beagle, dog, microsomes, 1 h", "value": 85.7, "unit": "%"}, {"measurement": "CLint scaled", "setting": "[4]; SD, rat, microsomes", "value": 106, "unit": "mL/min/kg"}, {"measurement": "Remaining (*NCF = 60 min)", "setting": "[4]; SD, rat, microsomes, 1 h", "value": 89.8, "unit": "%"}, {"measurement": "Remaining (T = 60 min)", "setting": "[4]; SD, rat, microsomes, 1 h", "value": 17.5, "unit": "%"}, {"measurement": "CLint scaled", "setting": "[4]; human, microsomes", "value": 117, "unit": "mL/min/kg"}, {"measurement": "Remaining (*NCF = 60 min)", "setting": "[4]; human, microsomes, 1 h", "value": 87.9, "unit": "%"}, {"measurement": "Remaining (*NCF = 60 min)", "setting": "[5]; CD-1, mouse, microsomes, 1 h", "value": 91.8, "unit": "%"}, {"measurement": "Remaining (T = 60 min)", "setting": "[5]; CD-1, mouse, microsomes, 1 h", "value": 50.2, "unit": "%"}]}
{"smiles": "Cc1cccc(-c2[nH]c(C(C)(C)C)nc2-c2ccc3nccnc3c2)n1", "note": "[SB-525334, reference compound]", "values": [{"measurement": "effect on CTGF expression", "setting": "[6]; 0.5 μM", "value": "no effect"}, {"measurement": "reduction of CTGF expression", "setting": "[6]; 10 μM", "value": 1.5, "unit": "fold"}, {"measurement": "reduction in α-actin expression level", "setting": "[3]; 0.5 μM, compared to TGF+DMSO stimulation", "value": 2, "unit": "fold"}, {"measurement": "concentration of maximum inhibition of α-actin expression", "setting": "[3]; MRC-5", "value": 10, "unit": "µM"}, {"measurement": "dose dependence of effect on α-actin expression", "setting": "[3]; MRC-5", "value": "Unclear dose-dependent effect"}, {"measurement": "effect on collagen α1 expression", "setting": "[7]", "value": "strongly inhibited"}, {"measurement": "effect on α-actin expression", "setting": "[8]", "value": "strongly inhibited"}]}
{"smiles": "C[C@]12CC[C@H]3[C@@H](CCC4=CC(=O)CC[C@@]43C)[C@@H]1CC[C@@H]2O", "note": "[Testosterone, testosterone]", "values": [{"measurement": "CLint scaled", "setting": "[4]; Beagle, dog, microsomes", "value": 114, "unit": "mL/min/kg"}, {"measurement": "Remaining (*NCF = 60 min)", "setting": "[4]; DLM 0.5, no co-factor", "value": 88.6, "unit": "%"}, {"measurement": "Remaining (T = 60 min)", "setting": "[4]; DLM 0.5, with NADPH", "value": 9.5, "unit": "%"}, {"measurement": "Remaining (*NCF = 60 min)", "setting": "[4]; HLM 0.5, no co-factor", "value": 82.4, "unit": "%"}, {"measurement": "Remaining (T = 60 min)", "setting": "[4]; HLM 0.5, with NADPH", "value": 6.9, "unit": "%"}, {"measurement": "Remaining (T = 60 min)", "setting": "[4]; HLM 0.5, with NADPH, listed as testosterone", "value": 6.9, "unit": "%"}, {"measurement": "Remaining (*NCF = 60 min)", "setting": "[4]; RLM 0.5, no co-factor", "value": 86.8, "unit": "%"}, {"measurement": "Remaining (T = 60 min)", "setting": "[4]; RLM 0.5, with NADPH", "value": 0.0, "unit": "%"}, {"measurement": "CLint scaled", "setting": "[4]; SD, rat, microsomes", "value": 2360, "unit": "mL/min/kg"}, {"measurement": "CLint scaled", "setting": "[4]; human, microsomes", "value": 79.7, "unit": "mL/min/kg"}, {"measurement": "CLint scaled", "setting": "[5]; CD-1, mouse, microsomes", "value": 1620, "unit": "mL/min/kg"}, {"measurement": "half-life", "setting": "[5]; CD-1, mouse, microsomes", "value": 3.4, "unit": "min"}, {"measurement": "Remaining (*NCF = 60 min)", "setting": "[5]; MLM 0.5, no co-factor", "value": 75.4, "unit": "%"}, {"measurement": "Remaining (T = 60 min)", "setting": "[5]; MLM 0.5, with NADPH", "value": 0.0, "unit": "%"}]}
